Results from ChEMBL document CHEMBL1147170, “Synthesis and biological evaluation of two glycerolipidic prodrugs of didanosine for direct lymphatic delivery against HIV” (Bioorg Med Chem Lett, 2007).

How the values were obtained:
[1] = tested on: Human immunodeficiency virus 1; assay: Antiviral activity against HIV1 LAI activity in phytohemagglutininin-activated human PBMC assessed as viral replication after 7 days; format: functional; details: for EC50: Human immunodeficiency virus 1, LAI, 168 h, read-out: ED50 (the source's name)
PBMC = assay: (§1) Cytotoxicity against phytohemagglutininin-activated human PBMC after 7 days by MTT assay; format: cell-based; details: pbmc, 168 h
[2] = as §1; format: cell-based; details: phytohemagglutinin-activated PBMC, read-out: CD50

Compound | ED90 [1] [µM] | EC50 [1] [µM] | CD90 (PBMC) [µM] | CC50 at 168 h [2] [µM]
CCCCCCCCCCCCCCCC(=O)OCC(COC(=O)CCCCCCCCCCCCCCC)OC(=O)CCCC(=O)OC[C@@H]1CC[C@H](n2cnc3c(=O)[nH]cnc32)O1 | >12 | 2.8 | > 12 | > 12
CCCCCCCCCCCCCCCC(=O)OCC(COC(=O)CCCCCCCCCCCCCCC)OC(=O)CCCCCOP(=O)(O)OC[C@@H]1CC[C@H](n2cnc3c(=O)[nH]cnc32)O1 | >50 | 28.5 | > 50 | > 50
O=c1[nH]cnc2c1ncn2[C@H]1CC[C@@H](CO)O1 [DIDANOSINE] | 4.8 | 1.2 | > 50 | 40
